# Where “and” joins values, the source holds several entries; their conditions need not be identical. Identical values can stand only once.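 Grown in 96-well plates, cells were treated for 48 hours with each compound at five concentrations. Insufficient inhibition: endpoint recorded as highest concentration tested. GI50 = concentration required for 50% inhibition of growth. At the TGI there is no net growth.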
# How the values were obtained:
# Assay in all cases: inhibition of tumour cell growth, NCI panel, 48 h
# A498 renal = system: A498 renal
# CAKI-1 renal = system: CAKI-1 renal
# MDA-MB-231 breast = system: MDA-MB-231 breast
# SNB-19 CNS = system: SNB-19 CNS
# HOP-92 NSCLC = system: HOP-92 NSCLC
# SK-MEL-28 melanoma = system: SK-MEL-28 melanoma
# OVCAR-5 ovarian = system: OVCAR-5 ovarian
# NCI-H23 lung = system: NCI-H23 lung
# TK-10 renal = system: TK-10 renal
# 786-0 renal = system: 786-0 renal
structure (smiles),measurement,setting,value
S=c1nc[nH]c2c1ncn2Cc1ccco1,TGI,A498 renal,> 100 µM
same,TGI,CAKI-1 renal,> 100 µM
same,TGI,MDA-MB-231 breast,> 100 µM
same,TGI,SNB-19 CNS,> 100 µM
same,TGI,HOP-92 NSCLC,> 100 µM
same,TGI,SK-MEL-28 melanoma,> 100 µM
same,TGI,OVCAR-5 ovarian,> 100 µM
same,TGI,NCI-H23 lung,> 100 µM
same,TGI,TK-10 renal,> 100 µM
same,TGI,786-0 renal,> 100 µM
CN(C)c1ccc(/C=C2\C[C@H]3[C@@H]4CC=C5C[C@@H](N6CCCC6)CC[C@]5(C)[C@H]4CC[C@]3(C)[C@H]2O)cc1,GI50,A498 renal,2.89 µM
same,TGI,A498 renal,2.1 µM and 8.92 µM
same,GI50,CAKI-1 renal,1.99 µM
same,TGI,CAKI-1 renal,3.88 µM and 23.9 µM
same,GI50,MDA-MB-231 breast,2.23 µM
same,TGI,MDA-MB-231 breast,2.16 µM and 4.46 µM
same,GI50,SNB-19 CNS,2.41 µM
same,TGI,SNB-19 CNS,6.94 µM and 9.08 µM
same,TGI,HOP-92 NSCLC,4.98 µM
same,TGI,SK-MEL-28 melanoma,1.84 µM
same,GI50,OVCAR-5 ovarian,14.1 µM
same,TGI,OVCAR-5 ovarian,13 µM and 57.2 µM
same,GI50,NCI-H23 lung,16.8 µM
same,TGI,NCI-H23 lung,9.93 µM and 58 µM
same,GI50,TK-10 renal,3.76 µM
same,TGI,TK-10 renal,3.17 µM and 11.7 µM
same,GI50,786-0 renal,1.84 µM
same,TGI,786-0 renal,1.29 µM and 3.73 µM
COc1ccc(N2CCN(C(=O)c3ccccc3Nc3ccnc(C(F)(F)F)c3)CC2)cc1,GI50,A498 renal,12.2 µM
same,TGI,A498 renal,> 100 µM
same,GI50,CAKI-1 renal,48.8 µM
same,TGI,CAKI-1 renal,> 100 µM
same,GI50,MDA-MB-231 breast,> 100 µM
same,TGI,MDA-MB-231 breast,> 100 µM
same,GI50,SNB-19 CNS,78.3 µM
same,TGI,SNB-19 CNS,> 100 µM
same,GI50,HOP-92 NSCLC,5.33 µM
same,TGI,HOP-92 NSCLC,68.8 µM
same,GI50,SK-MEL-28 melanoma,> 100 µM
same,TGI,SK-MEL-28 melanoma,> 100 µM
same,GI50,OVCAR-5 ovarian,> 100 µM
same,TGI,OVCAR-5 ovarian,> 100 µM
same,GI50,NCI-H23 lung,17.3 µM
same,TGI,NCI-H23 lung,> 100 µM
same,GI50,TK-10 renal,54.7 µM
same,TGI,TK-10 renal,> 100 µM
same,GI50,786-0 renal,> 100 µM
same,TGI,786-0 renal,> 100 µM
CC(C)C[C@H](NC(=O)[C@H](CCc1ccccc1)NC(=O)CN1CCOCC1)C(=O)N[C@@H](Cc1ccccc1)C(=O)N[C@@H](CC(C)C)C(=O)[C@@]1(C)CO1,GI50,A498 renal,0.0227 µM
same,TGI,A498 renal,0.0987 µM
same,GI50,CAKI-1 renal,0.109 µM
same,TGI,CAKI-1 renal,0.781 µM
same,GI50,MDA-MB-231 breast,< 0.0128 µM
same,TGI,MDA-MB-231 breast,0.0635 µM
same,GI50,SNB-19 CNS,< 0.0164 µM
same,TGI,SNB-19 CNS,> 100 µM
same,GI50,HOP-92 NSCLC,0.0236 µM
same,TGI,HOP-92 NSCLC,0.0812 µM
same,GI50,SK-MEL-28 melanoma,0.0475 µM
same,TGI,SK-MEL-28 melanoma,1.57 µM
same,GI50,OVCAR-5 ovarian,0.0255 µM
same,TGI,OVCAR-5 ovarian,0.112 µM
same,GI50,NCI-H23 lung,< 0.015 µM
same,TGI,NCI-H23 lung,0.115 µM
same,GI50,TK-10 renal,0.0144 µM
same,TGI,TK-10 renal,0.0934 µM
same,GI50,786-0 renal,0.0311 µM
same,TGI,786-0 renal,0.332 µM
C[C@]12O[C@H](C[C@]1(O)CO)n1c3ccccc3c3c4c(c5c6ccccc6n2c5c31)CNC4=O,GI50,A498 renal,0.013 µM and 0.0148 µM
same,TGI,A498 renal,0.114 µM and 0.0943 µM
same,GI50,CAKI-1 renal,0.00582 µM and < 0.0169 µM
same,GI50,MDA-MB-231 breast,0.126 µM and 0.151 µM
same,TGI,MDA-MB-231 breast,2.82 µM and 3 µM
same,GI50,SNB-19 CNS,0.546 µM and 0.544 µM
same,TGI,SNB-19 CNS,4.08 µM and 3.22 µM
same,GI50,HOP-92 NSCLC,0.0422 µM and 0.174 µM
same,TGI,HOP-92 NSCLC,0.65 µM and 1.16 µM
same,GI50,SK-MEL-28 melanoma,0.0851 µM and 0.0854 µM
same,TGI,SK-MEL-28 melanoma,1.12 µM and 1.36 µM
same,GI50,OVCAR-5 ovarian,0.114 µM
same,TGI,OVCAR-5 ovarian,> 10 µM and 4.79 µM
same,GI50,NCI-H23 lung,0.0843 µM and 0.189 µM
same,TGI,NCI-H23 lung,2.32 µM and 2.63 µM
same,GI50,TK-10 renal,0.0223 µM and 0.0189 µM
same,TGI,TK-10 renal,1.07 µM and 0.744 µM
same,GI50,786-0 renal,0.197 µM and 0.213 µM
same,TGI,786-0 renal,1.45 µM and 1.89 µM
C(=N\Nc1nnc2c(n1)[nH]c1ccccc12)/c1cccnc1,TGI,A498 renal,> 100 µM
same,TGI,CAKI-1 renal,> 100 µM
same,TGI,MDA-MB-231 breast,> 100 µM
same,TGI,SNB-19 CNS,> 100 µM
same,TGI,HOP-92 NSCLC,> 100 µM
same,TGI,SK-MEL-28 melanoma,> 100 µM
same,TGI,OVCAR-5 ovarian,> 100 µM
same,TGI,NCI-H23 lung,> 100 µM
same,TGI,TK-10 renal,> 100 µM
same,TGI,786-0 renal,> 100 µM
COc1ccc(C(=O)c2cc(OC)c(OC)c(OC)c2)cc1OC(C)=O,GI50,A498 renal,1.61 µM
same,TGI,A498 renal,6.43 µM
same,GI50,CAKI-1 renal,0.0746 µM
same,TGI,CAKI-1 renal,> 100 µM
same,GI50,MDA-MB-231 breast,0.0369 µM
same,TGI,MDA-MB-231 breast,> 100 µM
same,GI50,SNB-19 CNS,0.0381 µM
same,TGI,SNB-19 CNS,> 100 µM
same,GI50,HOP-92 NSCLC,1.73 µM
same,TGI,HOP-92 NSCLC,> 100 µM
same,GI50,SK-MEL-28 melanoma,11.2 µM
same,TGI,SK-MEL-28 melanoma,> 100 µM
same,GI50,OVCAR-5 ovarian,4.55 µM
same,TGI,OVCAR-5 ovarian,> 100 µM
same,GI50,NCI-H23 lung,0.0662 µM
same,TGI,NCI-H23 lung,> 100 µM
same,GI50,TK-10 renal,59 µM
same,TGI,TK-10 renal,> 100 µM
same,GI50,786-0 renal,0.672 µM
same,TGI,786-0 renal,> 100 µM
Cn1nc(C(F)(F)F)c(-c2ccc(Cl)c(C(F)(F)F)c2)c1-c1ccc(OCc2ccc(Cl)cc2)cc1O,GI50,A498 renal,1.05 µM
same,TGI,A498 renal,4.1 µM
same,GI50,CAKI-1 renal,1.48 µM
same,TGI,CAKI-1 renal,5.62 µM
same,GI50,MDA-MB-231 breast,1.59 µM
same,TGI,MDA-MB-231 breast,5.41 µM
same,GI50,SNB-19 CNS,2.03 µM
same,TGI,SNB-19 CNS,8.17 µM
same,GI50,HOP-92 NSCLC,1.11 µM
same,TGI,HOP-92 NSCLC,3.02 µM
same,GI50,SK-MEL-28 melanoma,1.88 µM
same,TGI,SK-MEL-28 melanoma,7.33 µM
same,GI50,OVCAR-5 ovarian,1.83 µM
same,TGI,OVCAR-5 ovarian,8.26 µM
same,GI50,NCI-H23 lung,1.41 µM
same,TGI,NCI-H23 lung,4.83 µM
same,GI50,TK-10 renal,1.91 µM
same,TGI,TK-10 renal,7.13 µM
same,GI50,786-0 renal,1.8 µM
same,TGI,786-0 renal,7.12 µM
O=[N+]([O-])c1cccc([N+](=O)[O-])c1S(=O)(=O)c1ccccc1,TGI,A498 renal,36.1 µM
same,TGI,CAKI-1 renal,3.76 µM
same,TGI,MDA-MB-231 breast,37.3 µM
same,TGI,SNB-19 CNS,35.3 µM
same,TGI,HOP-92 NSCLC,7.18 µM
same,TGI,SK-MEL-28 melanoma,15.2 µM
same,TGI,OVCAR-5 ovarian,9.18 µM
same,TGI,NCI-H23 lung,50.7 µM
same,TGI,TK-10 renal,30.2 µM
same,TGI,786-0 renal,5.21 µM
O=C1c2ccccc2C(=O)c2c(NCCCNCCO)ccc(NCCCNCCO)c21,TGI,A498 renal,31.1 µM
same,TGI,CAKI-1 renal,98.2 µM
same,TGI,MDA-MB-231 breast,24.2 µM
same,TGI,SNB-19 CNS,20.9 µM
same,TGI,HOP-92 NSCLC,26.2 µM
same,TGI,SK-MEL-28 melanoma,16.8 µM
same,TGI,OVCAR-5 ovarian,44.7 µM
same,TGI,NCI-H23 lung,23.9 µM
same,TGI,TK-10 renal,40.6 µM
same,TGI,786-0 renal,16.6 µM
CCSc1oc(-c2ccccc2)nc1[P+](c1ccccc1)(c1ccccc1)c1ccccc1,GI50,A498 renal,0.126 µM
same,TGI,A498 renal,0.579 µM
same,GI50,CAKI-1 renal,0.79 µM
same,TGI,CAKI-1 renal,2.66 µM
same,GI50,MDA-MB-231 breast,0.266 µM
same,TGI,MDA-MB-231 breast,1.08 µM
same,GI50,SNB-19 CNS,0.293 µM
same,TGI,SNB-19 CNS,3.88 µM
same,GI50,HOP-92 NSCLC,0.15 µM
same,TGI,HOP-92 NSCLC,0.551 µM
same,GI50,SK-MEL-28 melanoma,0.467 µM
same,TGI,SK-MEL-28 melanoma,2.32 µM
same,GI50,OVCAR-5 ovarian,0.416 µM
same,TGI,OVCAR-5 ovarian,6.36 µM
same,GI50,NCI-H23 lung,0.277 µM
same,TGI,NCI-H23 lung,1.1 µM
same,GI50,TK-10 renal,0.258 µM
same,TGI,TK-10 renal,2.66 µM
same,GI50,786-0 renal,0.376 µM
same,TGI,786-0 renal,2.11 µM
CCN(CC)CCN1C(=O)c2c(c(C)c3c(oc4cc(O)ccc43)c2C)C1=O,GI50,A498 renal,1.69 µM
same,TGI,A498 renal,3.12 µM
same,GI50,CAKI-1 renal,1.66 µM
same,TGI,CAKI-1 renal,3.06 µM
same,GI50,MDA-MB-231 breast,1.74 µM
same,TGI,MDA-MB-231 breast,3.36 µM
same,GI50,SNB-19 CNS,1.68 µM
same,TGI,SNB-19 CNS,3.21 µM
same,GI50,HOP-92 NSCLC,1.54 µM
same,TGI,HOP-92 NSCLC,3.14 µM
same,GI50,SK-MEL-28 melanoma,1.58 µM
same,TGI,SK-MEL-28 melanoma,3.03 µM
same,GI50,OVCAR-5 ovarian,1.66 µM
same,TGI,OVCAR-5 ovarian,3.04 µM
same,GI50,NCI-H23 lung,1.7 µM
same,TGI,NCI-H23 lung,3.2 µM
same,GI50,TK-10 renal,1.93 µM
same,TGI,TK-10 renal,3.62 µM
same,GI50,786-0 renal,1.62 µM
same,TGI,786-0 renal,3.2 µM
C/C1=C\[C@H](C)C[C@H](C)OC(=O)C[C@H](c2ccc(O)cc2)NC(=O)[C@@H](Cc2c(Br)[nH]c3ccccc23)N(C)C(=O)[C@H](C)NC(=O)[C@@H](C)C1,GI50,A498 renal,0.0703 µM
same,TGI,A498 renal,0.137 µM and 0.5 µM
same,GI50,CAKI-1 renal,0.0272 µM
same,TGI,CAKI-1 renal,0.2 µM and 0.0985 µM
same,TGI,MDA-MB-231 breast,0.0741 µM
same,GI50,SNB-19 CNS,0.0232 µM
same,TGI,SNB-19 CNS,0.0568 µM
same,GI50,HOP-92 NSCLC,0.0304 µM
same,TGI,HOP-92 NSCLC,0.532 µM and 0.535 µM
same,GI50,SK-MEL-28 melanoma,0.0272 µM
same,TGI,SK-MEL-28 melanoma,0.308 µM and 1.74 µM
same,GI50,OVCAR-5 ovarian,0.261 µM
same,TGI,OVCAR-5 ovarian,> 20.3 µM
same,GI50,NCI-H23 lung,0.114 µM
same,TGI,NCI-H23 lung,1.05 µM
same,GI50,TK-10 renal,0.0982 µM
same,TGI,TK-10 renal,0.428 µM and 0.26 µM
same,GI50,786-0 renal,0.0275 µM
same,TGI,786-0 renal,0.384 µM and 0.255 µM
